Measured values: PubChem BioAssay (NCI)
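1) Cells in 96-well plates. 2) Compound, 48 h, 5 concentrations. 3) Linear interpolation between surrounding doses. 4) Unreached endpoint = highest concentration. At the GI50, growth is halved. TGI is the concentration that stops growth completely.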

Tests used:
Test in all cases: DTP human tumour cell line panel, 48 h
786-0 renal = tested on: 786-0 renal
A549 NSCLC = tested on: A549 NSCLC
DU-145 prostate = tested on: DU-145 prostate
K-562 leukemia = tested on: K-562 leukemia
KM12 colon = tested on: KM12 colon
NCI-H23 lung = tested on: NCI-H23 lung
OVCAR-4 ovarian = tested on: OVCAR-4 ovarian
RPMI-8226 leukemia = tested on: RPMI-8226 leukemia
SF-268 CNS = tested on: SF-268 CNS
SF-295 CNS = tested on: SF-295 CNS
SNB-19 CNS = tested on: SNB-19 CNS
SR leukemia = tested on: SR leukemia
T-47D breast = tested on: T-47D breast
UACC-257 melanoma = tested on: UACC-257 melanoma
UACC-62 melanoma = tested on: UACC-62 melanoma
BT-549 breast = tested on: BT-549 breast
HL-60(TB) leukemia = tested on: HL-60(TB) leukemia

Row | Compound | TGI (786-0 renal) | TGI (A549 NSCLC) | TGI (DU-145 prostate) | TGI (K-562 leukemia) | TGI (KM12 colon) | TGI (NCI-H23 lung) | TGI (OVCAR-4 ovarian) | TGI (RPMI-8226 leukemia) | TGI (SF-268 CNS) | TGI (SF-295 CNS) | TGI (SNB-19 CNS) | TGI (SR leukemia) | TGI (T-47D breast) | TGI (UACC-257 melanoma) | TGI (UACC-62 melanoma) | TGI (BT-549 breast) | TGI (HL-60(TB) leukemia) | GI50 (DU-145 prostate) | GI50 (NCI-H23 lung) | GI50 (SF-295 CNS)
1 | CCOC(=O)/C(=C\c1c(C)[nH]c2ccccc12)P(=O)(OCC)OCC | > 100 µM | > 100 µM | > 100 µM | > 100 µM | > 100 µM | > 100 µM | > 100 µM | > 100 µM | > 100 µM | > 100 µM | > 100 µM | > 100 µM | > 100 µM | > 100 µM | > 100 µM | – | – | – | – | –
2 | CC(C)(C)OC(=O)C1/C(=C/CBr)CN1C(=O)OC(C)(C)C (configuration not stated) | 23.2 µM | 38 µM | – | 7.54 µM | – | 28.8 µM | 7.79 µM | 18.1 µM | 21.2 µM | 30.5 µM | 32.5 µM | – | – | 32.3 µM | 33.4 µM | 36.2 µM | 7.5 µM | – | – | –
3 | COc1cc2cnc3c4cc(OC)c(OC(C)C)cc4ccc3c2cc1OC | > 100 µM | > 100 µM | – | > 100 µM | > 100 µM | > 100 µM | > 100 µM | > 100 µM | > 100 µM | > 100 µM | > 100 µM | > 100 µM | – | > 100 µM | > 100 µM | – | > 100 µM | – | – | –
4 | N#CC(C#N)=Cn1c(=S)[nH]c2ccc([N+](=O)[O-])cc21 | > 100 µM | > 100 µM | > 100 µM | > 100 µM | > 100 µM | > 100 µM | > 100 µM | > 100 µM | > 100 µM | > 100 µM | > 100 µM | > 100 µM | > 100 µM | > 100 µM | > 100 µM | – | > 100 µM | – | – | –
5 | CC(O)C1OC(n2ccc(=O)[nH]c2=O)CC1n1cncn1 (configuration not stated) | > 100 µM | > 100 µM | – | > 100 µM | > 100 µM | > 100 µM | > 100 µM | > 100 µM | > 100 µM | > 100 µM | > 100 µM | > 100 µM | – | > 100 µM | > 100 µM | – | > 100 µM | – | – | –
6 | CN(C(=O)c1ccccc1)c1ccc2c(c1)C(=O)c1ccccc1C2=O | – | – | – | > 100 µM | > 100 µM | > 100 µM | > 100 µM | > 100 µM | > 100 µM | > 100 µM | – | > 100 µM | – | > 100 µM | > 100 µM | – | – | – | – | –
7 | COC(=O)/C(=N\N)C(C(=O)C(=O)Nc1nc(=S)[nH][nH]1)c1nc2ccc([N+](=O)[O-])cc2[nH]c1=O (configuration not stated) | > 100 µM | > 100 µM | – | > 100 µM | > 100 µM | > 100 µM | > 100 µM | > 100 µM | > 100 µM | > 100 µM | > 100 µM | > 100 µM | – | > 100 µM | > 100 µM | – | > 100 µM | – | – | –
8 | COc1cc([C@@H]2c3cc4c(cc3[C@@H](NC(=O)NO)[C@H]3COC(=O)[C@H]23)OCO4)cc(OC)c1O | > 100 µM | – | > 100 µM | > 100 µM | – | > 100 µM | > 100 µM | > 100 µM | > 100 µM | > 100 µM | > 100 µM | > 100 µM | > 100 µM | > 100 µM | – | – | > 100 µM | 7.27 µM | 9.31 µM | 4.97 µM
